Assay results reported in US12162934B2, “Gremlin-1 antagonist for the prevention and treatment of cancer” (UCB BIOPHARMA SRL, priority 2018, dated 2024).

Legend:
[1] = test system: MDA-MB-231 human breast cancer cells; experiment: MDA-MB-231 breast cancer model in NSG mice (BLI); format: in vivo; details: vs AbA33, p>0.05
Experimental: MDA-MB-231: 5-week old NOD/SCiD/gamma (NSG) immunocompromised mice were subcutaneously (s.c) administered two 30 mg/kg doses of anti-Grem1 antibody UCB6114 or IgG control, AbA33, the week prior to tumour cell inoculation. 1×10^5 luciferase expressing MDA-MB-231 human breast cancer cells were injected systemically via the CA.
Treatment continued twice weekly for the duration of the study. At weekly intervals, mice were administered 150 mg/kg luciferin intraperitoneally (i.p) and imaged using the Xenogen IVIS Bioluminescence Imaging System, and tumour burden was quantitated using Living Image software. The study ended on day 13 and day 22 post-tumour cell injection for the PyMT-B01 and MDA-MB-231 models respectively, according to animal ethics requirements. Organs were dissected upon culling animals and BLI imaged ex vivo for analysis of tumour metastasis.

[2] = test system: PC-3 prostate cancer cells; experiment: PC-3 prostate cancer model in NSG mice (BLI); format: in vivo, human; details: vs AbA33
Experimental: The PC-3 human prostate cancer cell line was obtained from ATCC (Manassas, VA, USA). The cell line expresses luciferase produced by retroviral expression of the SFG-NES-TGL vector (Ponomarev, V., et al. 2004). Cancer cells were cultured in RPMI1640 (Life Technologies, Australia) supplemented with 10% foetal bovine serum (FBS, Life Technologies, Australia), 100 IU/mL penicillin (Life Technologies, Australia), 100 μg/mL streptomycin (Life Technologies, Australia) and 25 mM HEPES (Life Technologies, Australia) at 37° C. in a 5% CO2 humidified atmosphere.
5-week old NOD.Cg-Prkd^scid Il2rg^tm1Wjl/SzJ (NSG) immunocompromised mice were subcutaneously (s.c) administered two 30 mg/kg doses of anti-Grem1 antibody (UCB6114) or IgG control, AbA33, the week prior to tumour cell inoculation. 5×10^5 luciferase expressing PC-3 […] prostate cancer cells were injected systemically via the caudal artery (CA).
Antibody treatment continued twice weekly for the duration of the study. A t weekly intervals, mice were administered 150 mg/kg luciferin intraperitoneally (i.p) and imaged using the Xenogen IVIS Bioluminescence Imaging System, and tumour burden was quantitated using Living Image software (PerkinElmer, MA, USA). At the end of each study, organs were dissected upon culling animals and BLI imaged ex vivo for analysis of tumour metastasis.

MDA-MB-231-TXSA cells = experiment: Proliferation assay of MDA-MB-231-TXSA cells in hypoxia (luciferase); format: cell-based, human; details: rhGrem1 0-1000 ng/ml
Experimental: Luciferase expressing MDA-MB-231-TXSA cells were seeded in 96-well microtiter plates (1×10^4 cells/well). Cells were cultured either under normoxic or hypoxic conditions and allowed to adhere overnight. Cells were then serum starved for 6 hrs before treatment with increasing concentrations of rhGrem1 protein (0-1000 ng/ml). At 24 and 48 hr time points, luciferase expression was evaluated and used as a surrogate measure of cell number. Briefly, cells were washed in 1×PBS, and subsequently lysed in cell culture lysis buffer (Promega). Luciferase Assay Reagent (5 mM MgCl2, 30 mM HEPES, 150 μM ATP, […] Coenzyme A and 150 μg/mL D-luciferin (Biosynth AG, Staad, Switzerland)) was added to cell lysates, and luminescence was quantified immediately using a luminometer plate reader (Wallac 3000).

Molecule: UCB6114: novel anti-Grem1 neutralising monoclonal antibody
- Mean tumour burden (BLI) ([1]; day 22): lower
- Mean tumour burden for lung metastasis (ex vivo BLI) [1]: reduction in mean tumour burden
- Whole animal tumour burden (BLI) ([2]; 30 mg/kg s.c. twice weekly): significant reduction
- Hindlimb tumour burden (ex vivo BLI) [2]: downward trend
- Liver tumour burden (ex vivo BLI) [2]: significant reduction
- Lung tumour burden (ex vivo BLI) [2]: downward trend

B1: rhGrem1: rhGrem1 protein used to stimulate breast cancer cells (protein)
chain: KKKGSQGAIPPPDKAQHNDSEQTQSPQQPGSRNRGRGQGRGTAMPGEEVLESSQEALHVTERKYLKRDWCKTQPLKQTIHEEGCNSRTIINRFCYGQCNSFYIPRHIRKEEGSFQSCSFCKPKKFTTMMVTLNCPELQPPTKKKRVTRVKQCRCISIDLD
- Maximal increase in MDA-MB-231-TXSA proliferation, hypoxic compared to normoxic conditions (MDA-MB-231-TXSA cells; 24 hr): 1.5 fold
- Maximal increase in MDA-MB-231-TXSA proliferation, hypoxic compared to normoxic conditions (MDA-MB-231-TXSA cells; 48 hr): 1.7 fold
